Data: patent publication US8324246B2, “Indol carboxylic acid bispyridyl carboxamide derivatives, pharmaceutically acceptable salt thereof, preparation method and composition containing the same as an active ingredient” (Korea Research Institute of Chemical Technology, priority 2008, dated 2012)
Like-named read-outs stand apart in the source and are kept apart here.

Experiments:
5-HT6 = 5-HT6 (Homo sapiens, UniProt P50406); test: Receptor selectivity binding, 5-HT6; details: Table 3
Experimental: (§1) For their high binding affinities for 5-HT2c, compounds in Examples 14 to 18, 20, and 22 or in Comparative Example 1 were used for the experiment with reaction mixtures. Except that CNS receptors such as 5-HT1a, 5-HT2a, 5-HT7, D2, D3 or D4 other than 5-HT2c were used as a receptor, IC50 values (nM) were measured in the same manner as in Experimental Example 1.

5-HT1a = biological target: T1, 5-HT1a (Homo sapiens, UniProt P08908); test: Receptor selectivity binding, 5-HT1a; details: Table 3
T1 sequence (P08908 1-422): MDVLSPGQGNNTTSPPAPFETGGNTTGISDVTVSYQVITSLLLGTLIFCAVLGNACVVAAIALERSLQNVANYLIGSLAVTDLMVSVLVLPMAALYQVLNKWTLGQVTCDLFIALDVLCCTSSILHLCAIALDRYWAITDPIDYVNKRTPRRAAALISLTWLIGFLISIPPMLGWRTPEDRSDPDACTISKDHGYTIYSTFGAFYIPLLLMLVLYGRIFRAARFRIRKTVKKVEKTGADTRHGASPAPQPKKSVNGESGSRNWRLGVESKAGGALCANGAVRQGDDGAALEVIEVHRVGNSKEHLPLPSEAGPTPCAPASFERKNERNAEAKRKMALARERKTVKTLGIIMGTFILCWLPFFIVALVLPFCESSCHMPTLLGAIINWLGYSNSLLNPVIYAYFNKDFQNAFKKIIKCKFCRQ
Experimental: as §1

5-HT7 = 5-HT7 (Homo sapiens, UniProt P34969); test: Receptor selectivity binding, 5-HT7; details: Table 3
Experimental: as §1

[1] = biological target: T2, human gene recombinant 5-HT2c receptor expressed in CHO-K1 cell (Homo sapiens, UniProt P28335); test: Binding affinity to the serotonin 5-HT2c receptor ([3H]mesulergine)
T2 construct: purchased Euroscreen, Belgium; host or cells: CHO-K1
T2 sequence (P28335 33-458): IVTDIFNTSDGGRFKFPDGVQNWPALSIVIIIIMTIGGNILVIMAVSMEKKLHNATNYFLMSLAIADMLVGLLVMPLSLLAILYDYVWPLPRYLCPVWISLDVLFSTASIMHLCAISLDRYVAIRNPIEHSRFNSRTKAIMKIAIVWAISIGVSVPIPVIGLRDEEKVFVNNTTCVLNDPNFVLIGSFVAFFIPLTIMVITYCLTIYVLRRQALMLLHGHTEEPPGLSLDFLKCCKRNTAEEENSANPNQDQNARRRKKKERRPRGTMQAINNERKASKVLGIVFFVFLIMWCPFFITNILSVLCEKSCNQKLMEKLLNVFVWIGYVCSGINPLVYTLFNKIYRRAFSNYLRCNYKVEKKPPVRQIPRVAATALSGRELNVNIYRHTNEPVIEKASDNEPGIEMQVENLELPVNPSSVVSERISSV
Experimental: As a receptor, a human gene recombinant 5-HT2c receptor expressed in CHO—K1 cell was purchased from Euroscreen, Belgium and used in the experiment, and as a radioactive isotope, [3H]mesulergine (Amersham Biosciences, UK).
A final volume of 0.25 ml reaction mixture was prepared by adding 50 mM Tris-HCl buffer (pH 7.7) containing one of the compounds in Examples 1-29 or Comparative Examples 1-2, 1 nM of [3H]mesulergine, 5-HT2c receptor membranes (4 D/well), 0.1% ascorbic acid and 10 µM pargyline, and incubated at 37° C. for 30 minutes. After incubation, the reaction was terminated by the rapid filtration using an Inotech harvester (Inotech) through a Wallace GF/C glass fiber filter (Wallac, Finland) which was presoaked in 1% BSA, and then washed with ice-cold 50 mM Tris-HCl buffer. The filter was covered with MeltiLex, sealed in a sample bag followed by drying in the oven, and counted by MicroBeta Plus (Wallac). Non-specific binding was determined in the presence of […] Mianserin. Three repeating experiments were carried out with 7-8 concentrations of the compound in Examples 1-29 or the compound in comparative examples 1-2, run in duplicate tubes, and isotherms from the three assays were calculated by a nonlinear regression analysis (GraphPad Prism Program, San Diego, USA) to yield IC50 values.

D4 = biological target: T3, D4 (Homo sapiens, UniProt P21917); test: Receptor selectivity binding, D4; details: Table 3
T3 sequence (P21917 1-419): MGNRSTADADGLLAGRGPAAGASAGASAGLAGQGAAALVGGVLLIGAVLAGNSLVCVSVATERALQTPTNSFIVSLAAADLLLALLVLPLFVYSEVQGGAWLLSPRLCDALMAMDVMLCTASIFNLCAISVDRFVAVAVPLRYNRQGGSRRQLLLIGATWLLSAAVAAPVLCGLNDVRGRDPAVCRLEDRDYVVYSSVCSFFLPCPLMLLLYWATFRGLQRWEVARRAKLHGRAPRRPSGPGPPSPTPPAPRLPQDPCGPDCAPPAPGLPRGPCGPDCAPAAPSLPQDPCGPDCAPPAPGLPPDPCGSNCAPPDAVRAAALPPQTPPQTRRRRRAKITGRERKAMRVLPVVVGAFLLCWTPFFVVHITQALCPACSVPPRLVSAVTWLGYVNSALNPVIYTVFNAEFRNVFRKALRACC
Experimental: as §1

D2 = D2 (Homo sapiens, UniProt P14416); test: Receptor selectivity binding, D2; details: Table 3
Experimental: as §1

D3 = D3 (Homo sapiens, UniProt P35462); test: Receptor selectivity binding, D3; details: Table 3
Experimental: as §1

5-HT2a = 5-HT2a (Homo sapiens, UniProt P28223); test: Receptor selectivity binding, 5-HT2a; details: Table 3
Experimental: as §1

human 5-HT2c receptors = biological target: T4, human 5-HT2c receptors (Homo sapiens, UniProt P28335); details: for Inhibition rate of serotonin (5-HT)-induced [35S]GTPS increase: 30 µM serotonin
T4 sequence (P28335 33-458): T2 sequence (P28335 33-458)

[2] = [3H]mesulergine 1 nM, 37° C. 30 minutes, Table 2, read-out: IC50

5-HT2a, sequence (P28223 whole entry, species assumed): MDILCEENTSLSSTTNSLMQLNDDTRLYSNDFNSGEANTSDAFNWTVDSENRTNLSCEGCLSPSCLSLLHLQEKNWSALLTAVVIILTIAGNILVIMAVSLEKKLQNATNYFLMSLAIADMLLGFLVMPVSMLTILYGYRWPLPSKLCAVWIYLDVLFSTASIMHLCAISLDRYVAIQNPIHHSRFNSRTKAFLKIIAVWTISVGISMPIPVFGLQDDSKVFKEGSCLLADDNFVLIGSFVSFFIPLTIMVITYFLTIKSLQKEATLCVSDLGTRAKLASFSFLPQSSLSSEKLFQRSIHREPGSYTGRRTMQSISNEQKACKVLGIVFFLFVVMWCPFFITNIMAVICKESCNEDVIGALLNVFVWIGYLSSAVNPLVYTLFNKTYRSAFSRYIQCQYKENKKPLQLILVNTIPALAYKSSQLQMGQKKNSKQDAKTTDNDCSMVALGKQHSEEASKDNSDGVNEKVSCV
D3, sequence (P35462 whole entry): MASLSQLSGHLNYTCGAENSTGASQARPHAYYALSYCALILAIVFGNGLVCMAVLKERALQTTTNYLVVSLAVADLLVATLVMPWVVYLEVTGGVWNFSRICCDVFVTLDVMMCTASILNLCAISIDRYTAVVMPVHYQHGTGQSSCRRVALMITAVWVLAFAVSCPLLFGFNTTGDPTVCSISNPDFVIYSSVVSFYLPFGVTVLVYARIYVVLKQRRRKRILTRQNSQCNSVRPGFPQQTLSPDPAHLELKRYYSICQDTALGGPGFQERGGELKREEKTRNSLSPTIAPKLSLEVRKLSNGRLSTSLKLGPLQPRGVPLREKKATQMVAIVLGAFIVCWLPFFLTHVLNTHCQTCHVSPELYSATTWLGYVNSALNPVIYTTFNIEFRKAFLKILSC
5-HT7, sequence (P34969 whole entry, species assumed): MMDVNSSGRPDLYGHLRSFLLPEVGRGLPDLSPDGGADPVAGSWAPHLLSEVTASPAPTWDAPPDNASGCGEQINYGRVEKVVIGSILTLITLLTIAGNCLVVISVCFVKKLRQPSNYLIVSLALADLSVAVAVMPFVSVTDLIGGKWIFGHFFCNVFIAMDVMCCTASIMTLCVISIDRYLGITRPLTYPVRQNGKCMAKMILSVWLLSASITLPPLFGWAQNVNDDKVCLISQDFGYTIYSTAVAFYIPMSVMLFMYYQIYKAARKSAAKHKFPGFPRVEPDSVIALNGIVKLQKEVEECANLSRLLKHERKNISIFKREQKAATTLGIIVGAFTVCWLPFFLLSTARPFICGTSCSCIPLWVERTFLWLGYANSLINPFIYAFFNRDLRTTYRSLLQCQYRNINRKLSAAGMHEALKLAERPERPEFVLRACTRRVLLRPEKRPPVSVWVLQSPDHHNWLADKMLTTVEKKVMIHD
D2, sequence (P14416 whole entry): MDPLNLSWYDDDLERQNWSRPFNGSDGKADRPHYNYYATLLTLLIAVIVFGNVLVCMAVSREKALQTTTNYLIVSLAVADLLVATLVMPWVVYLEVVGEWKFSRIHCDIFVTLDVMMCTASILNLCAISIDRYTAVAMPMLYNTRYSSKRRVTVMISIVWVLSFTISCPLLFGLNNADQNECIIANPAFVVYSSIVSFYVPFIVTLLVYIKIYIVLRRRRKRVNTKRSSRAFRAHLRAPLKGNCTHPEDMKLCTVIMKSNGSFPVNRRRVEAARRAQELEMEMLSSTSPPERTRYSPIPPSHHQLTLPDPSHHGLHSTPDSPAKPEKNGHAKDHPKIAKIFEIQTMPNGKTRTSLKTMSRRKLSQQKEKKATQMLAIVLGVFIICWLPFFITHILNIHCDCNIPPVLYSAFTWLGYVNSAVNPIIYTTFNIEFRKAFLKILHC
5-HT6, sequence (P50406 whole entry, species assumed): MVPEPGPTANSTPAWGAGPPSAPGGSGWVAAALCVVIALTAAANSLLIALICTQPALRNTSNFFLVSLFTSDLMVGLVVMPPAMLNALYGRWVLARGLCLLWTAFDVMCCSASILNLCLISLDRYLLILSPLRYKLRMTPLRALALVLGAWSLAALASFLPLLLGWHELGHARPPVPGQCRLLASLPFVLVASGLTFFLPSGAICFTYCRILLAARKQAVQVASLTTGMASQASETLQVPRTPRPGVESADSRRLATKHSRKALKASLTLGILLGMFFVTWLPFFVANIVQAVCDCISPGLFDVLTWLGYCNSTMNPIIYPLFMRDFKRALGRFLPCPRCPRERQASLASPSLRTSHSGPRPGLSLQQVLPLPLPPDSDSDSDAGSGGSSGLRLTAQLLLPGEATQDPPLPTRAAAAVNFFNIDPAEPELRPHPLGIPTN

SMILES | IC50 (5-HT6) [µM] | IC50 (5-HT1a) [µM] | IC50 (5-HT7) [µM] | IC50 ([1]; Table 3, read-out: IC50 5-HT2c) [µM] | IC50 [1, 2] [µM] | IC50 (D4) [µM] | IC50 (D2) [µM] | IC50 (D3) [µM] | IC50 (5-HT2a) [µM] | inhibition of the 5-HT-induced increase in [35S]GTPS concentration level (human 5-HT2c receptors; control 5-HT2c antagonist) | Inhibition rate of serotonin (5-HT)-induced [35S]GTPS increase (human 5-HT2c receptors; concentration 0.001 µM) [%] | Inhibition rate of serotonin (5-HT)-induced [35S]GTPS increase (human 5-HT2c receptors; concentration 0.01 µM) [%] | Inhibition rate of serotonin (5-HT)-induced [35S]GTPS increase (human 5-HT2c receptors; concentration 0.1 µM) [%] | Inhibition rate of serotonin (5-HT)-induced [35S]GTPS increase (human 5-HT2c receptors; concentration 1 µM) [%] | Inhibition rate of serotonin (5-HT)-induced [35S]GTPS increase (human 5-HT2c receptors; concentration 10 µM) [%] | IC50 (human 5-HT2c receptors; read-out: IC50, antagonist activity on serotonin (5-HT)-induced GTP level increase, 30 M serotonin) [µM]
Cc1ncccc1Oc1ccc(NC(=O)c2c[nH]c3ccc(I)cc23)cn1 [Example 18, 5-iodo-1H-indole-3-carboxylic acid[6-(2-methyl-pyridine-3-yloxy)-pyridine-3-yl]-amide] | > 1 | 0.78 | > 1 | 0.00062 | 0.0006 | > 1 | > 10 | > 1 | 0.0847 |  |  |  |  |  |  | 
Cc1cc2c(cc1Cl)N(C(=O)Nc1ccc(Oc3cccnc3C)nc1)CC2 [SB242084, reference compound] |  |  |  |  |  |  |  |  |  | inhibited |  |  |  |  |  | 
O=C(Nc1ccc(OCc2ccccn2)nc1)c1c[nH]c2ccccc12 [Example 20, 1H-indole-3-carboxylic acid[6-(pyridine-2-ylmethoxy)-pyridine-3-yl]-amide] | > 1 | > 10 | > 10 | 0.0059 | 0.0059 | > 10 | > 10 | > 10 | > 10 |  |  |  |  |  |  | 
COc1ccc2[nH]cc(C(=O)Nc3ccc(Oc4cccnc4C)nc3)c2c1 [Example 15, 5-methoxy-1H-indole-3-carboxylic acid[6-(2-methyl-pyridine-3-yloxy)-pyridine-3-yl]-amide] | > 10 | > 10 | > 10 | 0.0107 | 0.0107 | > 10 | > 10 | > 10 | > 10 |  |  |  |  |  |  | 
Cc1ccc2[nH]cc(C(=O)Nc3ccc(Oc4cccnc4C)nc3)c2c1 [Example 14, 5-methyl-1H-indole-3-carboxylic acid[6-(2-methyl-pyridine-3-yloxy)-pyridine-3-yl]-amide] | > 10 | > 10 | > 10 | 0.0045 | 0.0045 | > 10 | > 10 | > 10 | > 1 |  |  |  |  |  |  | 
Cc1ccc2c(C(=O)Nc3ccc(Oc4cccnc4C)nc3)c[nH]c2c1 [Example 16, 6-methyl-1H-indole-3-carboxylic acid[6-(2-methyl-pyridine-3-yloxy)-pyridine-3-yl]-amide] | > 10 | > 10 | > 10 | 0.0019 | 0.0019 | > 10 | > 10 | > 10 | > 10 |  |  |  |  |  |  | 
O=C(Nc1ccc(Oc2cccnc2Cl)nc1)c1c[nH]c2ccccc12 [Example 22, 1H-indole-3-carboxylic acid[6-(2-chloro-pyridine-3-yloxy)-pyridine-3-yl]-amide] | > 10 | > 10 | > 10 | 0.0005 | 0.0005 | > 1 | > 10 | > 10 | > 1 |  | 0 | 1 | 9 | 67 | 100 | 0.59
Cc1cc2c(cc1C(F)(F)F)N(C(=O)Nc1ccc(Oc3cccnc3C)nc1)CC2 [Comparative Example 1, SB-243213, reference compound] | 0.667 | > 1 | > 1 | 0.0007 | 0.0007 | > 10 | > 1 | > 1 | 0.0324 |  |  |  |  |  |  | 
Cc1ncccc1Oc1ccc(NC(=O)c2c[nH]c3c(C)cccc23)cn1 [Example 17, 7-methyl-1H-indole-3-carboxylic acid[6-(2-methyl-pyridine-3-yloxy)-pyridine-3-yl]-amide] | > 10 | > 10 | > 10 | 0.0082 | 0.0082 | > 10 | > 10 | > 10 | > 10 |  |  |  |  |  |  | 
